Measured values taken from patent US9481915B2, “Method of screening drugs that promote LOXL1 expression” (SHANGHAI TENTH PEOPLE'S HOSPITAL, priority 2012, dated 2016).

Experiments:
Type in all cases: cell-based
human LOXL1 promoter = assay: PLOXL1-ZsGreen reporter: green fluorescence intensity of human fibroblasts
Description: S3. Drug screening: Inoculate the said human fibroblasts integrating PLOXL1-ZsGreen component into culture medium, incubate overnight. Dissolve the analyte into DMSO as 0.2-2 mg/ml, and dilute into 1:200, then add it into the cell culture medium, and its final concentration will be […]. After incubating overnight (37° C., 5% CO2), detect the green fluorescence intensity of these cells. The screening method of present invention decides if the analyte added stimulates the activity of human LOXL1 promoter effectively, and increases the expression of LOXL1, thus promotes the crosslinking of extracellular matrix protein, by checking if the green fluorescence intensity is increased.
Inoculate the said human fibroblasts integrating PLOXL1-ZsGreen component into culture medium with a density of 20%, keep adherent overnight. […] After culturing overnight (37° C., 5% CO2), detect the green fluorescence intensity of these cells. The present invention decides if the Chinese herbal extracts added stimulate the activity of human LOXL1 promoter effectively by checking if the green fluorescence intensity is increased. […]
Inoculate the said stably expressing human fibroblast strain integrating a expression cassette of PLOXL1-ZsGreen with a 20% density into media, keep adherent overnight (37° C., 5% CO2), detect the green fluorescence intensity of these cells. […]

LOXL1 = assay: Real-time and western blot of LOXL1 mRNA/protein and elastin dimer in human fibroblast lines HF1 and HF2; settings: for expression of LOXL1 (mRNA and protein): 4 μM emodin, overnight; for formation of elastin dimer intermediate: different emodin concentrations
Description: Two human fibroblast cell lines integrating PLOXL1-ZsGreen components (HF1 and HF2) are inoculated at a density of 20%, incubated overnight (37° C., 5% CO2). […] After cultured overnight, Real-time and western blot are used to detect the mRNA level and protein level in LOXL1. Wherein, the one added DMSO solvent only works as the control, and is normalized to 1, data are calculated as Mean±SEM of three independent test values, *P<0.05; **P<0.001; ***P<0.0001. […] In these two cell lines, the expression of LOXL1 is not only linearly correlated to transcriptional level, but to LOXL1 protein level, and accomplishing elastin dimer intermediates formation.

[1] = system: extracellular matrix crosslinking in human fibroblasts; assay: ELISA of desmosine and hydroxylproline (elastin and collagen crosslinking) in human fibroblast lines HF1 and HF2; settings: different emodin concentrations
Description: Two human fibroblast cell lines integrating PLOXL1-ZsGreen components (HF1 and HF2) are inoculated at a density of 20%, incubated overnight (37° C., 5% CO2). Then, emodin is added into the culture medium. Detect the desmosine by ELISA method to determine the effects of different emodin concentrations to elastin crosslinking. This example determines the effects of different emodin concentrations to collagen crosslinking by detecting the contents of hydroxylproline through ELISA method. […] Thus, emodin promotes the crosslinking of extracellular matrix protein in human fibroblasts widely.

[2] = system: LOXL1 in human skin tissue; assay: Real-time and western blot of LOXL1 and elastin monomer/dimer in cultured human skin tissue
Description: Emodin was added into the culture medium of human skin tissue. Detect the LOXL1 level in human skin tissue and elastin crosslinking level during 1˜3 days after emodin treatment. Detect the mRNA level and protein level of LOXL1 using Real-time and western blot methods, as well as detecting the amount of monomer and dimer of elastin. Wherein, the control with DMSO solvent added only is normalized to 1, data are calculated as Mean±SEM of three independent test values. *p<0.01, ***P<0.0001.

## Cc1cc(O)c2c(c1)C(=O)c1cc(O)cc(O)c1C2=O [emodin]
Human LOXL1 promoter; Example 4, FIG. 4a, 4 μM emodin
  activity of human LOXL1 promoter (ZsGreen fluorescent intensity): obvious promotion to the activity of human LOXL1 promoter
Human LOXL1 promoter; Example 4, FIG. 4c, DMSO control normalized to 1
  fluorescent intensity of ZsGreen vs emodin concentration: increases with the concentration of emodin, with a significant linear relationship
LOXL1; HF1 cell line, FIGS. 5a1-5a2
  expression of LOXL1 (mRNA and protein): significantly promotes the expression of LOXL1
LOXL1; HF1 cell line, FIG. 5a3
  formation of elastin dimer intermediate: promotion of different emodin concentration to the expression of LOXL1 and the formation of elastin dimer intermediate
LOXL1; HF2 cell line, FIGS. 5b1-5b2
  expression of LOXL1 (mRNA and protein): significantly promotes the expression of LOXL1
LOXL1; HF2 cell line, FIG. 5b3
  formation of elastin dimer intermediate: promotion of different emodin concentration to the expression of LOXL1 and the formation of elastin dimer intermediate
[1]; HF1, FIG. 6a1
  desmosine intermediates (elastin crosslinking): increase with the increasing concentrations of emodin added
[1]; HF1, FIG. 6a2
  hydroxylproline intermediate (collagen crosslinking): also increases with the increasing concentrations of emodin added
[1]; HF2, FIG. 6b1
  desmosine intermediates (elastin crosslinking): increase with the increasing concentrations of emodin added
[1]; HF2, FIG. 6b2
  hydroxylproline intermediate (collagen crosslinking): also increases with the increasing concentrations of emodin added
[2]; 4 μM emodin, FIG. 7b
  LOXL1 protein level: significantly promotes the LOXL1 protein level
[2]; 4 μM emodin, FIG. 7c
  elastin intermediate dimers: increase of intermediate dimers
  elastin monomers: decrease of elastin monomers
[2]; different emodin concentrations, 1-3 days, FIG. 7a
  LOXL1 mRNA level: increases as the emodin concentration increases
